How the values were obtained:
mKv1.3 channels = target: T1, mKv1.3 channels (Mus musculus, UniProt P16390); assay: Whole-cell patch-clamp block of Kv1.3 currents in L929 fibroblasts stably expressing mKv1.3; type: cell-based
T1 construct: expressed in transfected cells
Experimental: In the absence of antibodies directed to ShK-235, the inventors used functional assays to identify and quantify ShK-235 expression and secretion into culture supernatants of LrS235. In more detail, the presence of active peptide was assayed by using whole-cell patch-clamp to test the ability of LrS235 supernatants to block Kv1.3 channels in mouse L929 fibroblasts stably expressing mKv1.3 channels. LrS235 and LrGusA were grown to mid-exponential phase and induced for expression of ShK-235 or GusA, and supernatants were processed as described in the materials and methods. […] Culture supernatant from LrS235 and LrGusA was tested for Kv1.3 channel block and the dose-response curve used to calculate the concentration of ShK-235 in supernatants.
Patch-clamp electrophysiology. To determine the concentration of ShK-235 in the LrS235 supernatants and rat sera, a dose-response of ShK-235 block of Kv1.3 was determined by adding known concentrations of the peptide to naïve rat serum and then testing by whole-cell patch-clamp of mouse L929 fibroblasts stably expressing mKv1.3 channels (45) using a PORT-A-PATCH® automated patch-clamp system (Nanion, Livingston, NJ), as described (16, 46). Culture supernatants and serum samples were then assessed with the same technique, and the dose-response curve was used to determine peptide concentration.

[1] = test system: collagen-induced arthritis (CIA) in Lewis rats; assay: Collagen-induced arthritis (CIA) treatment trial; type: in vivo, rat
Experimental: Starting at onset of clinical signs, four groups of rats received ˜1×10^9 CFU of either LrGusA or LrS235, both after SppIP induction for 2.5 hr, by daily oral gavage, or P6N vehicle or synthetic ShK-235 by injection in the scruff of the neck every other day.
Induction, monitoring, randomization, and treatment of rat collagen-induced arthritis. CIA was induced as described previously (46, 50). Briefly, female Lewis rats received a subcutaneous injection of 200 μl of a 1:1 emulsion of 2 mg/ml porcine type II collagen (20031, Chondrex, Redmond, WA) with incomplete Freund's adjuvant at the base of the tail. After 7 days, rats were given a booster of 100 μl of collagen and adjuvant emulsion. Disease onset was defined as the development of at least one swollen or red paw joint. Clinical scores were determined daily by assigning 1 point for each swollen or red toe joint, 2 points for mildly swollen wrist or ankle joints, and 5 points for each severely swollen wrist or ankle, giving each rat a maximum possible score of 60. Upon disease onset, rats were treated every other day by the subcutaneous injection of P6N buffer vehicle or 0.1 mg/kg ShK-235, or the oral gavage of 1×10^9 cfus LrGusA or 1×10^9 cfus LrS235 daily. CIA is more severe in rats with early disease onset. To avoid biasing results based on disease severity on the day each rat developed signs of disease and accounting for differences in the time between immunization and when a rat developed signs of illness, every rat that developed signs of disease on a given day was placed in a different treatment group to fill all groups in parallel.
Histology and micro-CT. Healthy rats and rats from the CIA trials were euthanized after 21 days of treatment, and their hind paws were collected and fixed in 10% buffered formalin. One paw from each rat was imaged by Micro-CT using a Bruker SkyScan 1272 Scanner set at 13 μm resolution with no filtering, no averaging, and a rotation step of 0.3. Raw images were analyzed with CTvox (Bruker, MA, US). The other hind paw was decalcified, embedded in paraffin, and sectioned. Slides were stained with either hematoxylin and eosin or Safranin O/Fast green and imaged at 4× magnification on a Nikon Ci-L bright-field microscope (Nikon Inc. NY, US). Scoring of the slides was completed by an investigator blinded to treatment groups using a comprehensive histological scoring system as described elsewhere (46, 51), in which cartilage degradation, cartilage erosion, angiogenesis, pannus formation, synovial hyperplasia, and synovial inflammation were evaluated by the following criteria: 0=absent, 1=mild, 2=moderate, 3=severe. The data were presented as mean±standard deviation.

[2] = test system: CIA and PIA rat models of RA; assay: Early and late treatment of CIA and PIA by LrS235; settings: in vivo
Description: Early and late treatment of CIA and PIA by LrS235. The objective of these experiments is to define the benefits of LrS235 as an oral delivery system for ShK-235 in reducing joint damage and local and systemic inflammation in rat models of RA and compare its efficacy to that of injected ShK-235 and ShK-235 delivered via an enteric-coated capsule. CIA is induced in Lewis rats by two injections at a week interval of an emulsion of porcine collagen II in incomplete Freund's adjuvant at the base of the tail^36,40,65,66. PIA is induced in DA rats by the single injection of pristane at the base of the tail. Clinical signs of CIA are observed in some aspects 3-6 days after the booster injection and clinical signs of PIA are observed in some aspects 2-3 weeks after the pristane injection. Clinical signs are scored daily based on the number of joints affected and the severity of the swelling, as in FIG. 7A. […]
Rats start receiving daily treatments either at onset of clinical signs (early treatment), or 10 days later, at peak of disease severity (late treatment). […] Rats are monitored daily for body weight and scored for clinical signs of arthritis using a standard scoring method^36,40,65,66 described in herein (FIG. 7A). […] At the end of the trials, animals are euthanized for collection of blood, hind limbs, inguinal lymph nodes, and small and large intestines, and the following is measured: […]

human and rat TEM cells = settings: cited from earlier work

T1 sequence (P16390 whole entry): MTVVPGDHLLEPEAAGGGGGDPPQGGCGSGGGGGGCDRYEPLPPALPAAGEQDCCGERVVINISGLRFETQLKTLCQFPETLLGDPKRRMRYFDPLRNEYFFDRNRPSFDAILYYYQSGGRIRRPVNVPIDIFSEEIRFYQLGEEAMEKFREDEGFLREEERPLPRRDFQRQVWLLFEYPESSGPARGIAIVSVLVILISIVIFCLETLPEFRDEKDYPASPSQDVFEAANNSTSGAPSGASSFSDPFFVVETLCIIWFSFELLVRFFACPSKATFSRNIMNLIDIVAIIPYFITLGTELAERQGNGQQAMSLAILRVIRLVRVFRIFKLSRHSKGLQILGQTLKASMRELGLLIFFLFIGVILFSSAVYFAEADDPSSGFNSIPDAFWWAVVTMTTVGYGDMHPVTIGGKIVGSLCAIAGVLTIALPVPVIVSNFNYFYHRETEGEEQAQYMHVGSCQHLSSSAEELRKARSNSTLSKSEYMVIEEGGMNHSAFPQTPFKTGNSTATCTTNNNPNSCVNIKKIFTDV

CC[C@H](C)[C@@H]1NC(=O)[C@H](CO)NC(=O)[C@H](Cc2c[nH]cn2)NC(=O)[C@H](CCCCN)NC(=O)[C@@H]2CSSC[C@@H]3NC(=O)[C@H]([C@@H](C)O)NC(=O)[C@H](CCCCN)NC(=O)[C@H](CCCNC(=N)N)NC(=O)[C@H](CSSC[C@H](NC(=O)[C@H](CCCNC(=N)N)NC(=O)[C@H](CO)NC(=O)[C@H](CCCCN)NC(=O)[C@@H]4CCCN4C(=O)[C@H]([C@@H](C)CC)NC(=O)[C@H]([C@@H](C)O)NC(=O)[C@H](CC(=O)O)NC(=O)[C@H]([C@@H](C)CC)NC(=O)[C@@H](NC(=O)[C@H](CO)NC(=O)[C@@H](N)CCCNC(=N)N)CSSC[C@@H](C(=O)N[C@@H](C)C(=O)O)NC(=O)[C@H]([C@@H](C)O)NC(=O)CNC3=O)C(=O)N[C@@H]([C@@H](C)O)C(=O)N[C@@H](C)C(=O)N[C@@H](Cc3ccccc3)C(=O)N[C@@H](CCCCN)C(=O)N2)NC(=O)[C@H](Cc2ccccc2)NC(=O)[C@H](CO)NC(=O)[C@H](CC(C)C)NC(=O)[C@H](CCCNC(=N)N)NC(=O)[C@H](Cc2ccc(O)cc2)NC(=O)[C@H](CCCCN)NC1=O [ShK-235]
IC50 (mKv1.3 channels): 0.0693 ± 0.024 nM
Mean clinical score of arthritis ([1]; 21 days from onset, bacteria ~1×10^9 CFU daily oral gavage, synthetic ShK-235 0.1 mg/kg s.c. every other day, max score 60): 11±3
Joint histology parameters (cartilage degradation and erosion, angiogenesis, pannus, synovial hyperplasia and inflammation) ([1]; end of trial): significantly reduced all parameters
Micro-CT imaging of hind limbs (bone erosion) ([1]; end of trial): better-preserved bones
Reduction of mean clinical score compared to vehicle control ([1]; same regimens as mean score): ~60%
Effect on incidence and severity of CIA and PIA [2]: reduce the incidence
Effect on activation and function of human and rat naïve and TCM cells (human and rat TEM cells): little to no effect
Inhibition of activation of human and rat TEM cells (human and rat TEM cells): preferentially inhibits
